From US20240016874A1, “COMPOSITIONS AND METHODS FOR PREVENTING AND TREATING CORONAVIRUSES” (priority 2020, published 2024)

Tested on: SARS-CoV-2-PP (614G, Delta, UK, Brazil variants) infecting ACE2 expression cells
Type: cell-based

SMILES: CC1=CC(=O)C(C(C)C)=CC1=O [thymoquinone]
- inhibition of SARS-CoV-2-PP infection: good inhibitor

SMILES: CCCCCCCCCCCCCCCC(=O)O [palmitic acid]
- difference of effect between variants: a difference between the Brazil variant and the other variants
- effect on variants when combined with Oleic acid or Linoleic acid: strongest inhibition on the Delta variant
- inhibition of SARS-CoV-2-PP infection: good inhibitor
